Assay results taken from patent US20080213377A1, “Delivery of Nanoparticles and/or Agents to Cells” (priority 2006, published 2008).
Values belong to the compound of their own block, whether it stands above or below them. No end group written: not given here.

Key:
[1] = tested on: collagenase (Clostridiopeptidase A); experiment: Protease activation of nanoparticles (TAMRA dequenching), collagenase; assay type: biochemical; conditions: 25 μM; collagenase 20 μg/ml
Recombinant MMP-2 = target: T1, Recombinant MMP-2 (Homo sapiens, UniProt P08253); experiment: Protease activation of nanoparticles (TAMRA dequenching), MMP-2; conditions: 25 μM; MMP-2 2.5 μg/ml
T1 sequence (P08253 110-660): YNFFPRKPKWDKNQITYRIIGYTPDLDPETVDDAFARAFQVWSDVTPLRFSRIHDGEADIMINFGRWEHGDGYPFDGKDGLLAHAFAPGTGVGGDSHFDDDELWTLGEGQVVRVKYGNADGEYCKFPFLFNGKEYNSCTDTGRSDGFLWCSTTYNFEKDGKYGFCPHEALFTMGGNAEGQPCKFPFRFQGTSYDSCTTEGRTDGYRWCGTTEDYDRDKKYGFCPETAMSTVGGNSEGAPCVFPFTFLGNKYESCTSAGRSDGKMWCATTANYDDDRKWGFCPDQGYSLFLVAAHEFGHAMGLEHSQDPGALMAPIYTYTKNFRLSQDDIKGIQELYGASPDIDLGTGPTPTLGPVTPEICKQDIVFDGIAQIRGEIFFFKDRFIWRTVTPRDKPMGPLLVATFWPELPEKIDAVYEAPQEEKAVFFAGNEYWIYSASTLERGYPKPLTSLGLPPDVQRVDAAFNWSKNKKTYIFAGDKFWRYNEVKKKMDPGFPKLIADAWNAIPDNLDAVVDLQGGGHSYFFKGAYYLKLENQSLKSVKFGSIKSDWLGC

[2] = target: Nucleolin on the surface of HeLa cells (UniProt P19338); experiment: cell-based or functional assay
Nucleolin on the surface of HeLa cells, sequence (P19338 2-710 limits assumed): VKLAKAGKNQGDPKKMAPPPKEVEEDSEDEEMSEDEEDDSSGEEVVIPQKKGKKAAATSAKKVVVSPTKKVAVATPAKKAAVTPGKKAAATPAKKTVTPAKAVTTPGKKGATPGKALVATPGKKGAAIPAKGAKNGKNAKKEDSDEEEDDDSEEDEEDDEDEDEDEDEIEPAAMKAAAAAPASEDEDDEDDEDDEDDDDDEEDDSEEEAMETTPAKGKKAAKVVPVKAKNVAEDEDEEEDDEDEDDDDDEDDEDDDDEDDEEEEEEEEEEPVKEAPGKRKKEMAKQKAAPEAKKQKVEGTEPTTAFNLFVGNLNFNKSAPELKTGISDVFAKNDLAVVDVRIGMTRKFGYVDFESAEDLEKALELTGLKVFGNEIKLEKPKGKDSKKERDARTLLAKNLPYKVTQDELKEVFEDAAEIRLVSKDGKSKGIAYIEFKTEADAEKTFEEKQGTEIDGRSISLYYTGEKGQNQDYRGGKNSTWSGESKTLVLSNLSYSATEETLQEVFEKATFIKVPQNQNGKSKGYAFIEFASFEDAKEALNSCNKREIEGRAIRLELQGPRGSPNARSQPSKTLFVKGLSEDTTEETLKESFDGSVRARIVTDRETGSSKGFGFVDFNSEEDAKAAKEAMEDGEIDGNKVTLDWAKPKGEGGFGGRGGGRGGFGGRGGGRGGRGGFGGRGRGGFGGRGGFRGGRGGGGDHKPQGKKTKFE

HeLa cells = experiment: QD internalization in HeLa cell monolayers, flow cytometry (Example 8); assay type: cell-based; conditions: free peptide 1 μM to 1 mM added with 50 nM F3-QDs
Text: After four hours, cells were washed with media, treated with trypsin (0.25%) and EDTA, and resuspended in 1% BSA (in PBS) for flow cytometry (BD FACSort, FL1 for EGFP signal and FL3 for QD signal). Fluorescence data on 10,000 cells were collected for each sample and the geometric mean of intensity was reported.

[3] = tested on: Free MMP-2 cleavable peptide substrate NH2-G-K(TAMRA)-G-P-L-G-V-R-G-C-CONH2
[4] = tested on: Peptide-PEG (MMP-2 cleavable L-AA substrate coupled to 10 kDa PEG) immobilized on dextran-coated iron oxide nanoparticles
Glioblastoma cells = experiment: Photoactivation of endosomal escape in glioblastoma cells; assay type: cell-based
Protocol: Fluorescein labeled CAR peptide ([…]) was synthesized using an ABI Model 433A peptide synthesizer from Biopolymers Laboratory, the MIT Center for Cancer Research. The peptide was cyclized by bubbling air into an aqueous solution of the peptide at 0.1 mg/ml overnight. Complete cyclization was confirmed by mass spectrometry and HPLC analysis.
Glioblastoma cells were obtained from the laboratory of Phil Sharp (MIT). The cyclized peptide (cCAR) was incubated with cells for 2 hours at 37° C. in complete culture medium (DMEM supplemented with serum, streptomycin, penicillin and fungizone). A monolayer of the cells was then rinsed with warm media three times. Microscopy photographs were taken after overnight incubation of the cells. For activation of photosensitizer, Arc lamp light from a microscope was irradiated onto the cells for two minutes.

Compound: CNC(=O)[C@H](Cc1c[nH]c2ccccc12)NC(=O)[C@@H](CC(=O)NO)CC(C)C [Galardin]
inhibition of nanoparticle activation (peptide-PEG cleavage) [1]: inhibits activation | inhibition of nanoparticle activation (peptide-PEG cleavage) (Recombinant MMP-2): inhibits activation

QD uptake by HeLa cells (flow cytometry) (orders of magnitude) [2]: 2
Compound: F3-QD (F3 peptide C[Ahx]… conjugated to PEG-amino quantum dots)

Compound: Lys-Ala-Arg-Glu-Cys (KAREC; printed: Lys-Ala-Arg-Glu-Cys) [KAREC peptide]
inhibition of F3-QD uptake by free peptide (HeLa cells): minimal

Compound: Recombinant MMP-2
Kcat/Km (cleavage of the substrate by MMP-2 over time, fluorescamine assay) [3]: 8.42 and 26.7 µM^-1 hr^-1 respectively | Kcat/Km (cleavage of the substrate by MMP-2 over time, TAMRA dequenching) [4]: 8.42 and 26.7 µM^-1 hr^-1 respectively | fold reduction of MMP-2 Kcat/Km against the free peptide [4]: reduces its associated MMP-2 Kcat/Km within a practical range, 3.2 fold

Compound: cyclic CAR peptide: Fluorescein labeled, cyclized CAR peptide (CARSKNKDC), binds heparan sulfate proteoglycans (also: fluorescein label, position not given here, cyclized, bond type not given here)
internalization into cells (Glioblastoma cells; 2 hours at 37° C., without light irradiation): internalized | endosomal escape upon light irradiation (Glioblastoma cells; Arc lamp light irradiation): distributed evenly inside cells
